Measured values taken from PMC9276676, “Difluoromethylornithine (DFMO) and AMXT 1501 inhibit capsule biosynthesis in pneumococci” (Scientific Reports, 2022).
≈ marks a conversion by molar mass, not a printed value. Where two headings read alike, the source gives them in different places.

Experiments:
[1] = molecular target: T1, SP_0916 (arginine decarboxylase, ADC) (Streptococcus pneumoniae, UniProt A0A0H2UPK4); settings: Km of the enzyme for the decarboxylase substrate; rows named by product; previously reported ref 18; cited from earlier work
[2] = system: S. pneumoniae serotype 2 (D39); assay: DFMO susceptibility and growth in THY (OD600, MIC); format: cell-based, Streptococcus pneumoniae; settings: Streptococcus pneumoniae
Procedure: S. pneumoniae serotypes 4 (TIGR4), 2 (D39), 19F (EF3030) and 3 (WU2) were cultured in Todd Hewitt broth supplemented with yeast extract (THY). Supplementation with DFMO ranging from 1.1 to 549 mM was carried out in triplicate in a 96-well plate and incubated at 37 °C and 5% CO2 in a Cytation™ 5 cell imaging multi-mode reader (BioTek, Winooski, VT). The change in optical density at 600 nm (OD600) was measured every hour for 24 h and used to determine the minimum inhibitory concentration (MIC) of DFMO. The optical density data was analyzed using GrowthRates 4.0 software. To determine whether DFMO at sub-MIC is bacteriostatic or lethal to pneumococcal cells, all strains were cultured in the presence or absence of 1/2 MIC DFMO. OD600 was measured every hour and CFU were enumerated on a blood agar plate (BAP) every 2 h over an 8 h incubation period.

[3] = system: S. pneumoniae D39; format: cell-based, Streptococcus pneumoniae
Procedure: This was done to directly compare possible changes in intracellular concentrations of polyamines and capsule precursors as a result of DFMO inhibition of polyamine synthesis to the earlier report where polyamine synthesis was affected via gene deletion in TIGR4[24]. […] Cells were harvested (5000×g, 10 min, 4 °C), re-suspended in extraction solvent [40% acetonitrile, 40% methanol, 20% water with formic acid (0.1 M)] and transferred to bead-beater tubes (MP Biomedicals, Irvine, CA, USA). Cells were lysed using a FastPrep-24™ Classic (45 s, 6.5 m/s, RT, 3 times) (MP Biomedicals, Irvine, CA, USA) and incubated on ice (5 min after each spin). TIGR4 lysates were clarified (6000×g, 5 min, 4 °C), and metabolite differentiation and detection were performed using published protocols[28],[29]. Liquid chromatography-mass spectrometry-based (LC–MS) metabolomic analysis was performed with an Agilent Accurate Mass 6230 TOF coupled with an Agilent 1290 LC system using a Cogent Diamond Hydride Type C column. Briefly, the mobile phase consisted of the following: solvent A (ddH2O with 0.2% formic acid) and solvent B (acetonitrile with 0.2% formic acid). The gradient used was as follows: 0–2 min, 85% B; 3–5 min, 80% B; 6–7 min, 75% B; 8–9 min, 70% B; 10–11.1 min, 50% B; 11.1–14 min 20% B; 14.1–24 min 5% B followed by a 10 min re-equilibration period at 85% B at a flow rate of 0.4 mL/min. Mass axis dynamics was calibrated by continuous infusion of a reference mass solution using an isocratic pump. […] Metabolite identities were searched for using a mass tolerance of < 0.005 Da. Metabolite concentrations from the 5 biological replicates were normalized to biomass based on measurement of residual peptide content in individual samples using the Pierce BCA Protein Assay kit (Thermo Fisher Scientific, Waltham, MA, USA). Data were analyzed using Profinder B.07.00 software (Agilent Technologies, Santa Clara, CA, USA). Extracted molecular features detected in the mass analyzer were identified using accurate mass values and used to generate empirical molecular formulae using an in-house metabolite database that included known intermediates, amino acid precursors and polyamines and their derivatives. Statistical analysis of metabolite peak intensity data was performed using MetaboAnalyst 4.0[30]. Data were normalized (quantile), log transformed and significant fold change between WT and DFMO-treated WT were identified by Student’s t-test (p ≤ 0.05).
To measure the polyamines, glucose and glucuronic acid in D39, TSQ Quantum Access triple-quadrupole tandem mass spectrometer (Thermo Fisher Scientific, Waltham, MA, USA) equipped with acquity UPLC system (Waters, Milford, MA, USA) was operated in positive and negative ion mode. Chromatographic separation was performed on Cogent Diamond Hydride HPLC column (2.1 mm × 150 mm, 4 μm) coupled with Congent Diamond Hydride HPLC Guard column (2.0 mm × 10 mm, 4 μm). The flow rate was 500 µL/min, the sample injection volume was 10 µL, and the column temperature was at 40 °C. The mobile phase A was composed of water with 0.1% v/v formic acid, and mobile phase B was composed of acetonitrile with 0.1% v/v formic acid. The gradient condition was 0 min (5% A, 95% B), 1 min (5% A, 95% B), 4.0 min (30% A, 70% B), 6 min (95% A, 5% B), 6.5 min (95% A, 5% B), 7 min (5% A, 95% B), and 10 min (5% A, 95%B). The total run time was 10 min, and the column eluate directed into the mass spectrometer using an electrospray ionization interface in positive and negative modes. The MS conditions were set as follow: spray voltage = 3500 V, vaporizer temperature = 350 °C, sheath gas = 25 psi, auxiliary gas = 10 psi, and capillary temperature = 350 °C. Samples were run in selected reaction monitoring (SRM) mode, and the optimized MS/MS parameters for ionization are given in Table 1.

[4] = system: D39 (serotype 2) capsule; assay: Total capsular polysaccharide (CPS) immunoblot with densitometry; format: cell-based, Streptococcus pneumoniae; settings: D39; for total CPS (capsule) by immunoblot: DFMO 1/8 MIC 34 mM, agmatine 1/4 MIC 20 mM, AMXT 1501 1/2 MIC 7.4 µM, alone or with agmatine
Procedure: (§1) S. pneumoniae strains were cultured with DFMO and AMXT 1501 at varying final concentrations of 1/2, 1/4, and 1/8 MIC to OD600 0.2–0.3 either individually or together to estimate any additive or synergistic effects. Capsular polysaccharides (CPS) were extracted and quantified in triplicate, as described previously[26] with slight modification. Briefly, CPS was extracted in a lysis buffer (4% deoxycholate, 50 µg/mL DNAse I and 50 µg/mL RNAse A) at 37 °C for 10 min and centrifuged at 18,000×g for 10 min. The supernatant (2 µL) was spotted on a 0.2-µm-pore-size nitrocellulose membrane (Thermo Fisher Scientific, Waltham, MA, USA) and oven dried at 60 °C for 15 min. The membranes were blocked and incubated with different types of antisera for capsule detection: antisera type- 4 (for TIGR4), 2 (for D39), polyclonal (for EF3030) and 3 (for WU2) (Cedarlane, Burlington, NC, USA). A conjugated polyclonal goat anti-rabbit IgG-HRP (Agilent Technologies, Santa Clara, CA, USA) was used for enhanced chemiluminescence (ECL) detection in all the strains (Thermo Fisher Scientific, Waltham, MA, USA) and scanned using a ChemiDoc XRS+ with Image Lab software (Bio-Rad, Hercules, CA, USA). Densitometry analysis of the immunoblot was done with NIH ImageJ software.
(§2) We determined the impact of varying concentrations of DFMO (1/8 to 1/2 MIC) on CPS in all serotypes (2, 4, 19F, and 3) used in this study. […] D39 was treated with 1/8 MIC DFMO alone, 1/4 MIC agmatine (Agm) alone, a combination of 1/8 MIC DFMO and 1/4 MIC Agm, and a control without DFMO or Agm. CPS was extracted as described in the previous section and immunoblot analysis with type 2 antisera was performed to detect CPS semi-quantitatively.

[5] = system: EF3030 (serotype 19F) capsule; assay: as above; format: cell-based, Streptococcus pneumoniae; settings: serotype 19F; AMXT 1501 at 1/2 MIC
Procedure: as §1, §2

[6] = system: WU2 (serotype 3) capsule; assay: as above; format: cell-based, Streptococcus pneumoniae; settings: serotype 3; AMXT 1501 at 1/2 MIC
Procedure: as §1, §2

[7] = system: TIGR4 (serotype 4) capsule; assay: as above; format: cell-based, Streptococcus pneumoniae; settings: serotype 4; AMXT 1501 at 1/2 MIC
Procedure: as §1, §2

[8] = molecular target: T1, SP_0916 (arginine decarboxylase, ADC); assay: Inhibition of decarboxylase activities of recombinant SP_0916 (LC-MS); format: biochemical; settings: read-out: DFMA IC50
Description: We determined the impact of DFMO (ODC/ADC inhibitor) and α-difluoromethylarginine (DFMA, an ADC inhibitor) on the decarboxylase activities of SP_0916. BL21(DE3) cells expressing recombinant His tag SP_0916 were lysed with B-PER reagent buffer (Thermo Fisher Scientific, Waltham, MA, USA), lysate separated by loading unto HisPur Cobalt Spin Column (Thermo Fisher Scientific, Waltham, MA, USA), desalted using Sephadex G-25 PD-10 column (GE Healthcare, Chicago, IL, USA), and protein concentration estimated using the Pierce BCA Protein Assay kit (Thermo Fisher Scientific, Waltham, MA, USA).
SP_0916-encoded protein (0.926 µmol L^−1) was mixed with 10 mM substrate (arginine, lysine or ornithine) in the reaction mixture (500 µL reaction volume, 50 mM Tris–HCl, pH 8.0) that contains 2.5 mM MgSO4 and 0.6 mM PLP. DFMO was diluted in water to 3–900 mM and added to the reaction mixture after 5 min preincubation at 37 °C in the dark. DFMA stock was made in a similar manner but was diluted in water to 0.3–1000 µM. The enzyme and inhibitor were incubated at 37 °C for 15 min in the dark and the reaction terminated with 0.3 M perchloric acid. After incubation on ice for 15 min, the samples were neutralized with 25 µL of 10 N KOH and extracted with 1 mL of 1-butanol. The organic layer was dried under nitrogen gas and reconstituted with 100 µL of water containing Spermidine-d8 and Glucose-d7 as an internal standard. Analysis of the extracts was performed on a Surveyor LC–MS system. 5 µL of reconstitution was injected to the LC–MS system for detection of the products (agmatine, cadaverine or putrescine). We used internal standards to normalize and determine the peak intensity (area ratio) for each metabolite detected. Enzyme activity without inhibitor is referred to as a control activity. All experiments were performed in triplicate. The concentration of inhibitor that inhibited 50% of the control activity (IC50 value) was determined by varying the concentration of the indicated DFMO or DFMA and measuring the decarboxylase activity. Sigma Plot v. 12 was used to fit the curve through the points and IC50 values were interpolated from the fitted curve.

[9] = DFMO 34 mM, agmatine 20 mM, AMXT 1501 7.4 µM, p-value in bracket omitted

T1 sequence (A0A0H2UPK4 entry or part of it): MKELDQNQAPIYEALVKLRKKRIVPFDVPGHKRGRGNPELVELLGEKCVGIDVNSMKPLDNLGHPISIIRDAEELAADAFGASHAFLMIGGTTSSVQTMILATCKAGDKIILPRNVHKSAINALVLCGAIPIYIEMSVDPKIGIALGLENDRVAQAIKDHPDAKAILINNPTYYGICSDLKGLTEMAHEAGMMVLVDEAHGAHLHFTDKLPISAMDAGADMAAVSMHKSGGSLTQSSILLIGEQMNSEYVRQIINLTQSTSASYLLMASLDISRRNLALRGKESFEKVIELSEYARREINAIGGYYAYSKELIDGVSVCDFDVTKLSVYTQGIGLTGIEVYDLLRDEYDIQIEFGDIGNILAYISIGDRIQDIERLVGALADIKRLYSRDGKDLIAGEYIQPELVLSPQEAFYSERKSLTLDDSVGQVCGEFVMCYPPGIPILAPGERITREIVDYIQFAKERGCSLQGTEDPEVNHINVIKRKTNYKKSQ

Compound | Km [1] [µM] | Agmatine, fold change treated D39 /D39 [3, 9] | Cadaverine, fold change treated D39 /D39 [3, 9] | Lysine, fold change treated D39 /D39 [3, 9] | N-acetyl spermidine, fold change treated D39 /D39 [3, 9] | N-carbamoyl putrescine, fold change treated D39 /D39 [3, 9] | Ornithine, fold change treated D39 /D39 [3, 9] | Putrescine, fold change treated D39 /D39 [3, 9] | Spermidine, fold change treated D39 /D39 [3, 9] | Spermine, fold change treated D39 /D39 [3, 9] | total CPS (capsule) by immunoblot [4] | also measured
NCCCCCN [Cadaverine, cadaverine] | 1610 ± 280 |  |  |  |  |  |  |  |  |  |  | 
CCCCCCCCCCCCCCCC(=O)NCCCC[C@@H](N)C(=O)NCCCNCCCCNCCCN [AMXT 1501] |  | -1.5 (0.006) | -1.2 (4.61E-04) | -0.5 (3.48E-04) | -1.6 (0.022) | -1.8 (0.016) | -0.5 (0.004) | -1.4 (0.001) | -5.5 (0.006) | -0.3 (0.455) | Loss of capsule | MIC ([2]; read-out: 1/2 MIC): 7.4 µM (≈ 4.21 µg/mL); intracellular glucose (peak intensity) ([3]; 1/8 MIC DFMO (34 mM), 1/2 MIC AMXT 1501 (7.4 µM)): increases glucose level; intracellular glucuronic acid (peak intensity) ([3]; 1/8 MIC DFMO (34 mM), 1/2 MIC AMXT 1501 (7.4 µM), separately or in combination): significantly depleted; Arginine, fold change treated D39 /D39 [3, 9]: -0.1 (0.546); less capsule compared to untreated controls (densitometry of immunoblots) ([4]; 1/2 MIC AMXT 1501 (7.4 µM)): 61%; impact on CPS [5]: had no impact on CPS; impact on CPS [6]: had no impact on CPS; impact on CPS [7]: had no impact on CPS
N=C(N)NCCC[C@](N)(C(=O)O)C(F)F [DFMA, α-difluoromethylarginine] |  |  |  |  |  |  |  |  |  |  |  | IC50 ([8]; arginine to agmatine, 10 mM substrate, 15 min, 37 °C): 1.1 ± 0.1 µM; IC50 ([8]; lysine to cadaverine, 10 mM substrate, 15 min, 37 °C): 56.6 ± 11.9 µM; IC50 [8]: 40.5 ± 11.6 µM
NCCCCN [Putrescine, putrescine] | 3550 ± 280 |  |  |  |  |  |  |  |  |  |  | 
NCCCCN=C(N)N [Agmatine, agmatine] | 110 ± 20 | 10.2 (1.61E-06) | -0.3 (0.204) | 0.1 (0.048) | 0.8 (0.009) | 9.6 (1.58E-05) | 0.1 (0.149) | 3.3 (0.004) | 0.6 (0.283) | 1.4 (3.30E-04) | does not impact the capsule | MIC ([2]; D39, concentration equal to a quarter of the MIC, read-out: 1/4 MIC): 20000 µM (≈ 2600 µg/mL)
